Data reported in article PMC11180509 (The Journal of Clinical Endocrinology and Metabolism, 2024).

Assay: Plasma concentration of intact GIP after subcutaneous GIP injection
Assay type: in vivo, human

- Time until plasma intact GIP returned to basal level (fasting men with T2D, n = 10, 200 µg GIP subcutaneous bolus): about 150 minutes
- Tmax (male, human, plasma, sc, 200 ug): 30 min
- Cmax (male, human, plasma, sc, 200 ug, SEM): 0.055 ± 0.0058 nM
SMILES: CC[C@H](C)[C@H](NC(=O)[C@H](CO)NC(=O)[C@H](Cc1ccc(O)cc1)NC(=O)[C@H](CC(=O)O)NC(=O)[C@H](CO)NC(=O)[C@@H](NC(=O)[C@H](Cc1ccccc1)NC(=O)[C@@H](NC(=O)CNC(=O)[C@H](CCC(=O)O)NC(=O)[C@H](C)NC(=O)[C@@H](N)Cc1ccc(O)cc1)[C@@H](C)O)[C@@H](C)CC)C(=O)N[C@@H](C)C(=O)N[C@@H](CCSC)C(=O)N[C@@H](CC(=O)O)C(=O)N[C@@H](CCCCN)C(=O)N[C@H](C(=O)N[C@@H](Cc1c[nH]cn1)C(=O)N[C@@H](CCC(N)=O)C(=O)N[C@@H](CCC(N)=O)C(=O)N[C@@H](CC(=O)O)C(=O)N[C@@H](Cc1ccccc1)C(=O)N[C@H](C(=O)N[C@@H](CC(N)=O)C(=O)N[C@@H](Cc1c[nH]c2ccccc12)C(=O)N[C@@H](CC(C)C)C(=O)N[C@@H](CC(C)C)C(=O)N[C@@H](C)C(=O)N[C@@H](CCC(N)=O)C(=O)N[C@@H](CCCCN)C(=O)NCC(=O)N[C@@H](CCCCN)C(=O)N[C@@H](CCCCN)C(=O)N[C@@H](CC(N)=O)C(=O)N[C@@H](CC(=O)O)C(=O)N[C@@H](Cc1c[nH]c2ccccc12)C(=O)N[C@@H](CCCCN)C(=O)N[C@@H](Cc1c[nH]cn1)C(=O)N[C@@H](CC(N)=O)C(=O)N[C@H](C(=O)N[C@H](C(=O)N[C@@H](CCC(N)=O)C(=O)O)[C@@H](C)O)[C@@H](C)CC)C(C)C)[C@@H](C)CC [GIP, Human GIP(1-42)]
